Assays:
[1] = target: T1, human endoplasmic reticulum aminopeptidase 1 (rHsERAP1) (Homo sapiens, UniProt Q9NZ08); assay: rHsERAP1 inhibition, L-AMC fluorigenic substrate; assay type: biochemical; conditions: 50 µM L-AMC
T1 construct: made in house; host or cells: Hi5 insect cells (baculovirus produced in sf9)
Procedure: (§1) The enzymatic activity of HsERAP1, HsERAP2 and HsIRAP was determined by following the time-dependent increase in fluorescence at 460 nm (excitation: 380 nm) of the fluorigenic substrates L-Leucine-7-amido-4-methyl coumarin (L-AMC; Sigma, Darmstatd, Germany) for HsERAP1 and HsIRAP and L-arginyl-7-amido-4-methyl coumarin (R-AMC; Sigma) for HsERAP2. […] The reaction was followed for 10 min at room temperature and the remaining enzymatic activity was calculated by measuring the slope of the time course.

[2] = target: T2, human endoplasmic reticulum aminopeptidase 2 (rHsERAP2) (Homo sapiens, UniProt Q6P179); assay: rHsERAP2 inhibition, R-AMC fluorigenic substrate; assay type: biochemical; conditions: 50 µM R-AMC
T2 construct: made in house; host or cells: Hi5 insect cells (baculovirus produced in sf9)
T2 sequence (Q6P179 whole entry): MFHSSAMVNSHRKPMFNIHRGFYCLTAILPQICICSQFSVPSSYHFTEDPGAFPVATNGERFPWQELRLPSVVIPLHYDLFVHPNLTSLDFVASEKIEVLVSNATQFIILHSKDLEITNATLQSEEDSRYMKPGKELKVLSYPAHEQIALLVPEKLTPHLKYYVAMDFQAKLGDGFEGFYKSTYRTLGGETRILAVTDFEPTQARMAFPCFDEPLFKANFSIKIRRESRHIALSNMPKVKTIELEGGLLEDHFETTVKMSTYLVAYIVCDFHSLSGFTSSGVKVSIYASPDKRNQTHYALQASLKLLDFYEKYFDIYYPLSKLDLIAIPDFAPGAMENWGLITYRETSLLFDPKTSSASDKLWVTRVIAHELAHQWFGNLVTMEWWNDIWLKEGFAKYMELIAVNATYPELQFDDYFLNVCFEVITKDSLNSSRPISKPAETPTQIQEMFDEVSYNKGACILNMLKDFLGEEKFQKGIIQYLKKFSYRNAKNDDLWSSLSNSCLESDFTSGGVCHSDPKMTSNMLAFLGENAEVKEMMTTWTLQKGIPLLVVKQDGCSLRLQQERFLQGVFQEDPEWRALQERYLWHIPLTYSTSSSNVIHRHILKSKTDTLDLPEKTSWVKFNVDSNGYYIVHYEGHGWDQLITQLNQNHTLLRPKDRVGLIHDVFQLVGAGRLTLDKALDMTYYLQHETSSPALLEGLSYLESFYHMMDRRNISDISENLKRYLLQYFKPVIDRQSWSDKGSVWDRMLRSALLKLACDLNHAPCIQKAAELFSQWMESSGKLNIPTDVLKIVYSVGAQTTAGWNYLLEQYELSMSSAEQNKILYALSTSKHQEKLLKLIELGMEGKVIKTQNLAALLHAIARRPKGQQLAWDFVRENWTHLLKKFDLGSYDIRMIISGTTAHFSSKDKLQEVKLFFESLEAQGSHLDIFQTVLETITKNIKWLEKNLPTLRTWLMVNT
Procedure: as §1

[3] = target: T3, human Leucyl-cystinyl aminopeptidase (rHsIRAP) (Homo sapiens, UniProt Q9UIQ6); assay: rHsIRAP inhibition, L-AMC fluorigenic substrate; assay type: biochemical; conditions: 50 µM L-AMC; read-out: IC50 rHsIRAP
T3 construct: made in house; host or cells: Hi5 insect cells (baculovirus produced in sf9)
T3 sequence (Q9UIQ6 155-1025 limits assumed): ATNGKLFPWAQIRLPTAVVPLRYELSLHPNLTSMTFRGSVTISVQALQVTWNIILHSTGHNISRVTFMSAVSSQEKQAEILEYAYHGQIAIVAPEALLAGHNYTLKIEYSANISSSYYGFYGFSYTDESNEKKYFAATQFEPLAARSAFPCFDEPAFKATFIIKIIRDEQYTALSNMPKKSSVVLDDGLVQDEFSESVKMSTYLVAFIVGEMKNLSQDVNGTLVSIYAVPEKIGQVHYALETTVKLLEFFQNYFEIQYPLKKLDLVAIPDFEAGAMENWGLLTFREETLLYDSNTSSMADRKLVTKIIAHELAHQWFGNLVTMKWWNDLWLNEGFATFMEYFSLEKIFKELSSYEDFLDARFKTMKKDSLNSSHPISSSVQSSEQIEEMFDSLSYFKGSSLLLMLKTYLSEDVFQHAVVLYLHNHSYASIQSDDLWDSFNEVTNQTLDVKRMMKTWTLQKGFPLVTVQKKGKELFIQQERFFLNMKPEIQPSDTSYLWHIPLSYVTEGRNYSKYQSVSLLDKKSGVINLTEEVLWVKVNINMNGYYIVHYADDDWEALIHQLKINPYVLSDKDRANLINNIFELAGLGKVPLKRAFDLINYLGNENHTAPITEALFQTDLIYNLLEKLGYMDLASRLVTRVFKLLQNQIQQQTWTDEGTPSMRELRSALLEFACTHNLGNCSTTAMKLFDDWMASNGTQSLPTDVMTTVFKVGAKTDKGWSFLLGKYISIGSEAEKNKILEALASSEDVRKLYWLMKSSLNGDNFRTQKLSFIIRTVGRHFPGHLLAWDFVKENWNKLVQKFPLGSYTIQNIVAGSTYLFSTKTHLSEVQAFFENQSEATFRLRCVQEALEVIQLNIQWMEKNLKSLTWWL
Procedure: The enzymatic activity of HsERAP1, HsERAP2 and HsIRAP was determined by following the time-dependent increase in fluorescence at 460 nm (excitation: 380 nm) of the fluorigenic substrates L-Leucine-7-amido-4-methyl coumarin (L-AMC; Sigma, Darmstatd, Germany) for HsERAP1 and HsIRAP and L-arginyl-7-amido-4-methyl coumarin (R-AMC; Sigma) for HsERAP2. […]. The reaction was followed for 10 min at room temperature and the remaining enzymatic activity was calculated by measuring the slope of the time course. […]

[4] = target: T4, P. falciparum rPfAM17 (Plasmodium falciparum, UniProt Q8IL11); assay: rPfAM17 inhibition, Leu-pNA substrate, Dixon plots; assay type: biochemical
T4 construct: made in house; host or cells: Escherichia coli Rosetta 2 (DE3)
T4 sequence (Q8IL11 1-605): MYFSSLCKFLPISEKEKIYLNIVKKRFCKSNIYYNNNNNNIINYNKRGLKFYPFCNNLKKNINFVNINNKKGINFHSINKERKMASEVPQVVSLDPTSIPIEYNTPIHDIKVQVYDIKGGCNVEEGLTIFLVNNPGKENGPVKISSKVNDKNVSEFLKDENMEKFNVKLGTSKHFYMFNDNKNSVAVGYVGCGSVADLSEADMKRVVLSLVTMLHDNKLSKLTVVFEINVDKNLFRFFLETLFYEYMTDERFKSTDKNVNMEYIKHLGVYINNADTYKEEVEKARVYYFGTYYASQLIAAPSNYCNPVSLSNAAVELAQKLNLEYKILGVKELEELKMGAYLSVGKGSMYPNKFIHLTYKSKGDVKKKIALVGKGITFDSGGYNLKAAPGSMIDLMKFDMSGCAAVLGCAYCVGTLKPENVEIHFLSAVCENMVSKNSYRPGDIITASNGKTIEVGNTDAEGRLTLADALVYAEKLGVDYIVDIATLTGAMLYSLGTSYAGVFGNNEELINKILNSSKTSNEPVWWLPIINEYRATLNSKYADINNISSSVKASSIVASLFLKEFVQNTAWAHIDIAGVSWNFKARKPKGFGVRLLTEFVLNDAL
Procedure: Tests were carried out on HP/Agilent UV-Visible diode array spectrophotometer 8453 (HP/Agilent, Santa Clara, CA, USA), at 30 °C in Tris HCl 50 mM pH 7.4 for rPfAM1 and pH 8 for rPfAM17, with a final DMSO concentration of 1%. […]. […] Initial velocities were measured with increasing concentrations of inhibitors and Ki values were determined by Dixon plots in triplicate.

[5] = target: human leukotriene A4 hydrolase (rHsLTA4H); parameters: method as in PMID 21843945; conditions: ref 58; cited from earlier work

T1 sequence (Q9NZ08 whole entry): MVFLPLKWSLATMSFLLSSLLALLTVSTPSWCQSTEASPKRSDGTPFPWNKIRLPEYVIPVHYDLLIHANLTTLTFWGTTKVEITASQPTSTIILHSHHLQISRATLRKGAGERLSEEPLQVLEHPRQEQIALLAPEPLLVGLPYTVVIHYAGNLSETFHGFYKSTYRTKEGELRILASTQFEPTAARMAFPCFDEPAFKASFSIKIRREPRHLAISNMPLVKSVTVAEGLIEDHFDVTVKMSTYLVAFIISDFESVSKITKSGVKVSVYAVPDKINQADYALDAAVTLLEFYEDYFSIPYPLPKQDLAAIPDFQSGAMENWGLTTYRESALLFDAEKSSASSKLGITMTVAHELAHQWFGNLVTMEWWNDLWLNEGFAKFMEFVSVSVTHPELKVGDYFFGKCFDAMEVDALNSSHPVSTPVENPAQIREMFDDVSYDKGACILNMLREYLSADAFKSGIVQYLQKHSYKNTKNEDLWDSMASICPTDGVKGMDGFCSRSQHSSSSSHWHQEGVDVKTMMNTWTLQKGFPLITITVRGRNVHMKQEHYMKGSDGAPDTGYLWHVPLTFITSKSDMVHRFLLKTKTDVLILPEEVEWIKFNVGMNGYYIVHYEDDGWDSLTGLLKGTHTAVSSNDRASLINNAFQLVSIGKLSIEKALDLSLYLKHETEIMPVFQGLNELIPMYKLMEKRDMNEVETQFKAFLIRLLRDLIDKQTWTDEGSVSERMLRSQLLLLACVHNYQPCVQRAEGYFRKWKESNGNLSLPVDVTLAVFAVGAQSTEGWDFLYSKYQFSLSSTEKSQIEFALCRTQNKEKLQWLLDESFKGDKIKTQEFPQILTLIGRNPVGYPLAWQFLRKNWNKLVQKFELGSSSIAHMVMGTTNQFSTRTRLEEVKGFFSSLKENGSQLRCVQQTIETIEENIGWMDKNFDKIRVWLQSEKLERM

## NC1CCc2c(Br)cccc2CC1=O (centres unmarked) [21e]
[1]
  IC50: 56 ± 7 µM
[2]
  IC50: 104 ± 7 µM
[3]
  IC50: 2.6 ± 0.2 µM
[4]
  Ki: > 100 µM
[5]
  Ki: > 100 µM

From PMC6222927, “Aminobenzosuberone Scaffold as a Modular Chemical Tool for the Inhibition of Therapeutically Relevant M1 Aminopeptidases” (Molecules : A Journal of Synthetic Chemistry and Natural …, 2018)
